Among the data in ChEMBL document CHEMBL1152127, “Kinetic isotope effects in the oxidation of arachidonic acid by soybean lipoxygenase-1” (Bioorg Med Chem Lett, 2008) are Km and Activity values, retold here.

Structures are written as SMILES.

In test [1] the test system is Glycine max. Kind of test: Activity of soybean lipoxygenase 1.
Test [2] concerns Glycine max. As to the kind of experiment: Activity of soybean lipoxygenase 1 assessed as rate of oxidation under diffusion-controlled reaction at 20 deg C.
The test system of test [3] is Glycine max. As to the kind of experiment: Activity of soybean lipoxygenase 1 assessed as rate of oxidation under diffusion-controlled reaction at 37 deg C.
For test [4], the system named is Glycine max. As to the kind of experiment: Activity of soybean lipoxygenase 1 assessed as rate of oxidation under diffusion-controlled reaction at 5 deg C.

Broadly, the Km is the substrate concentration at which the rate is half of its maximum. For `CCCCC/C=C\C/C=C\CCCCCCCC(=O)O`, the Km with Glycine max [1] was determined as 39 µM.

On to `CCCCC/C=C\C/C=C\C/C=C\C/C=C\CCCC(=O)O`, for which the Activity in the test on Glycine max [2] was determined as 56%; with Glycine max [3], 28%; in the test on Glycine max [4], 18%. For the same molecule, the Michaelis-Menten constant (Km) in the test with Glycine max [1] turned out to be 15 µM.
